Experiments:
Format in all cases: functional
OVCAR-4 = assay: Cytotoxicity against human OVCAR4 cells assessed as cell growth at 0.1 uM after 48 hrs by sulforhodamine B assay relative to control; conditions: OVCAR-4, 48 h, read-out: Activity
ACHN [1] = assay: Cytotoxicity against human ACHN cells assessed as cell growth at 100 uM after 48 hrs by sulforhodamine B assay relative to control; conditions: read-out: Activity
SF-539 [2] = assay: Cytotoxicity against human SF539 cells assessed as cell growth at 0.01 uM after 48 hrs by sulforhodamine B assay relative to control; conditions: SF-539, 48 h, read-out: Activity
NCI-H522 = assay: Cytotoxicity against human NCI-H522 cells assessed as cell growth at 0.1 uM after 48 hrs by sulforhodamine B assay relative to control; conditions: NCI-H522, 48 h, read-out: Activity
HOP-62 [3] = assay: Cytotoxicity against human HOP62 cells assessed as growth inhibition after 48 hrs by sulforhodamine B assay; conditions: HOP-62, 48 h
MOLT-4 = assay: Cytotoxicity against human MOLT4 cells assessed as growth inhibition after 48 hrs by sulforhodamine B assay; conditions: MOLT-4, 48 h
BT-549 = assay: Cytotoxicity against human BT549 cells assessed as cell growth at 1 uM after 48 hrs by sulforhodamine B assay relative to control; conditions: BT-549, 48 h, read-out: Activity
NCI/ADR-RES = assay: Cytotoxicity against human NCI/ADR-RES cells assessed as cell growth at 0.1 uM after 48 hrs by sulforhodamine B assay relative to control; conditions: read-out: Activity
OVCAR-5 = assay: Cytotoxicity against human OVCAR5 cells assessed as growth inhibition after 48 hrs by sulforhodamine B assay; conditions: OVCAR-5, 48 h
SN12C = assay: Cytotoxicity against human SN12C cells assessed as cell growth at 0.01 uM after 48 hrs by sulforhodamine B assay relative to control; conditions: read-out: Activity
SK-MEL-28 = assay: Cytotoxicity against human SK-MEL-28 cells assessed as cell growth at 100 uM after 48 hrs by sulforhodamine B assay relative to control; conditions: SK-MEL-28, 48 h, read-out: Activity
HT-29 = assay: Cytotoxicity against human HT-29 cells assessed as growth inhibition after 48 hrs by sulforhodamine B assay; conditions: HT-29, 48 h
ACHN [4] = assay: Cytotoxicity against human ACHN cells assessed as cell growth at 10 uM after 48 hrs by sulforhodamine B assay relative to control; conditions: read-out: Activity
HCT-116 = assay: Cytotoxicity against human HCT116 cells assessed as cell growth at 1 uM after 48 hrs by sulforhodamine B assay relative to control; conditions: HCT-116, 48 h, read-out: Activity
NCI-H460 [5] = assay: Cytotoxicity against human NCI-H460 cells assessed as cell growth at 10 uM after 48 hrs by sulforhodamine B assay relative to control; conditions: NCI-H460, 48 h, read-out: Activity
DU-145 [6] = assay: Cytotoxicity against human DU145 cells assessed as cell growth at 1 uM after 48 hrs by sulforhodamine B assay relative to control; conditions: DU-145, 48 h, read-out: Activity
HL-60(TB) [7] = assay: Cytotoxicity against human HL-60(TB) cells assessed as cell growth at 100 uM after 48 hrs by sulforhodamine B assay relative to control; conditions: HL-60, 48 h, read-out: Activity
SF-539 [8] = assay: Cytotoxicity against human SF539 cells assessed as cell growth at 10 uM after 48 hrs by sulforhodamine B assay relative to control; conditions: SF-539, 48 h, read-out: Activity
DU-145 [9] = assay: Cytotoxicity against human DU145 cells assessed as cell growth at 0.1 uM after 48 hrs by sulforhodamine B assay relative to control; conditions: DU-145, 48 h, read-out: Activity
MDA-MB-231 = assay: Cytotoxicity against human MDA-MB-231 cells assessed as cell growth at 10 uM after 48 hrs by sulforhodamine B assay relative to control; conditions: MDA-MB-231, 48 h, read-out: Activity
HCC 2998 [10] = assay: Cytotoxicity against human HCC2998 cells assessed as cell growth at 1 uM after 48 hrs by sulforhodamine B assay relative to control; conditions: HCC 2998, 48 h, read-out: Activity
NCI-H23 = assay: Cytotoxicity against human NCI-H23 cells assessed as cell growth at 0.01 uM after 48 hrs by sulforhodamine B assay relative to control; conditions: NCI-H23, 48 h, read-out: Activity
SK-OV-3 = assay: Cytotoxicity against human SKOV3 cells assessed as growth inhibition after 48 hrs by sulforhodamine B assay; conditions: SK-OV-3, 48 h
NCI-H226 = assay: Cytotoxicity against human NCI-H226 cells assessed as growth inhibition after 48 hrs by sulforhodamine B assay; conditions: NCI-H226, 48 h
HOP-62 [11] = assay: Cytotoxicity against human HOP62 cells assessed as cell growth at 0.01 uM after 48 hrs by sulforhodamine B assay relative to control; conditions: HOP-62, 48 h, read-out: Activity
HOP-62 [12] = assay: Cytotoxicity against human HOP62 cells assessed as cell growth at 100 uM after 48 hrs by sulforhodamine B assay relative to control; conditions: HOP-62, 48 h, read-out: Activity
A498 = assay: Cytotoxicity against human A498 cells assessed as growth inhibition after 48 hrs by sulforhodamine B assay; conditions: A498, 48 h
MCF7 = assay: Cytotoxicity against human MCF7 cells assessed as growth inhibition after 48 hrs by sulforhodamine B assay; conditions: MCF7, 48 h
KM12 = assay: Cytotoxicity against human KM12 cells assessed as cell growth at 0.1 uM after 48 hrs by sulforhodamine B assay relative to control; conditions: KM12, 48 h, read-out: Activity
HL-60(TB) [13] = assay: Cytotoxicity against human HL-60(TB) cells assessed as cell growth at 1 uM after 48 hrs by sulforhodamine B assay relative to control; conditions: HL-60, 48 h, read-out: Activity
HCC 2998 [14] = assay: Cytotoxicity against human HCC2998 cells assessed as cell growth at 10 uM after 48 hrs by sulforhodamine B assay relative to control; conditions: HCC 2998, 48 h, read-out: Activity
NCI-H460 [15] = assay: Cytotoxicity against human NCI-H460 cells assessed as cell growth at 100 uM after 48 hrs by sulforhodamine B assay relative to control; conditions: NCI-H460, 48 h, read-out: Activity
HCT-15 = assay: Cytotoxicity against human HCT15 cells assessed as cell growth at 10 uM after 48 hrs by sulforhodamine B assay relative to control; conditions: HCT-15, 48 h, read-out: Activity
IGROV-1 = assay: Cytotoxicity against human IGROV1 cells assessed as cell growth at 0.01 uM after 48 hrs by sulforhodamine B assay relative to control; conditions: IGROV-1, 48 h, read-out: Activity
DU-145 [16] = assay: Cytotoxicity against human DU145 cells assessed as cell growth at 100 uM after 48 hrs by sulforhodamine B assay relative to control; conditions: DU-145, 48 h, read-out: Activity
CCRF-CEM = assay: Cytotoxicity against human CCRF-CEM cells assessed as cell growth at 0.1 uM after 48 hrs by sulforhodamine B assay relative to control; conditions: read-out: Activity

## COc1cc(-c2cc(/C=C/C(=O)c3ccc(N)cc3)[nH]n2)cc(OC)c1OC
OVCAR-4
  growth at 0.1 µM: 105%
ACHN [1]
  growth at 100 µM: -63%
SF-539 [2]
  growth at 0.01 µM: 92%
NCI-H522
  growth at 0.1 µM: 92%
HOP-62 [3]
  GI50: 1.77 µM
  LC50: 8.7 µM
  TGI: 3.92 µM
MOLT-4
  GI50: 1.91 µM
  TGI: 8.51 µM
MOLT-4; read-out: LC50 (the source's name)
  CC50: > 100 µM
BT-549
  growth at 1 µM: 73%
NCI/ADR-RES
  growth at 0.1 µM: 110%
OVCAR-5
  GI50: 1.78 µM
  LC50: 7.91 µM
  TGI: 3.75 µM
SN12C
  growth at 0.01 µM: 98%
SK-MEL-28
  growth at 100 µM: -83%
HT-29
  GI50: 1.85 µM
  LC50: > 100 µM
  TGI: 4.82 µM
ACHN [4]
  growth at 10 µM: -61%
HCT-116
  growth at 1 µM: 56%
NCI-H460 [5]
  growth at 10 µM: -32%
DU-145 [6]
  growth at 1 µM: 78%
HL-60(TB) [7]
  growth at 100 µM: -12%
SF-539 [8]
  growth at 10 µM: -93%
DU-145 [9]
  growth at 0.1 µM: 104%
MDA-MB-231
  growth at 10 µM: 7%
HCC 2998 [10]
  growth at 1 µM: 110%
NCI-H23
  growth at 0.01 µM: 102%
SK-OV-3
  GI50: 2.99 µM
  LC50: 28.9 µM
  TGI: 8.32 µM
NCI-H226
  GI50: 1.71 µM
  LC50 (concentration killing 50% of cells): 7.18 µM
  TGI: 3.51 µM
HOP-62 [11]
  growth at 0.01 µM: 83%
HOP-62 [12]
  growth at 100 µM: -98%
A498
  GI50: 1.64 µM
  LC50: 13.4 µM
  TGI: 4.33 µM
MCF7
  GI50: 1.5 µM
  LC50: 60.5 µM
  TGI: 5.42 µM
KM12
  growth at 0.1 µM: 98%
HL-60(TB) [13]
  growth at 1 µM: 66%
HCC 2998 [14]
  growth at 10 µM: -86%
NCI-H460 [15]
  growth at 100 µM: -59%
HCT-15
  growth at 10 µM: -12%
IGROV-1
  growth at 0.01 µM: 107%
DU-145 [16]
  growth at 100 µM: -98%
CCRF-CEM
  growth at 0.1 µM: 91%

From ChEMBL document CHEMBL4138123, “Design, synthesis and biological evaluation of novel pyrazolochalcones as potential modulators of PI3K/Akt/mTOR pathway and inducers of apoptosis in breast cancer cells” (Eur J Med Chem, 2017)
